The assay addresses T1, human mAChR M4 (Homo sapiens, UniProt P08173).
T1 construct: expressed in transfected cells
T1 sequence (P08173 1-479): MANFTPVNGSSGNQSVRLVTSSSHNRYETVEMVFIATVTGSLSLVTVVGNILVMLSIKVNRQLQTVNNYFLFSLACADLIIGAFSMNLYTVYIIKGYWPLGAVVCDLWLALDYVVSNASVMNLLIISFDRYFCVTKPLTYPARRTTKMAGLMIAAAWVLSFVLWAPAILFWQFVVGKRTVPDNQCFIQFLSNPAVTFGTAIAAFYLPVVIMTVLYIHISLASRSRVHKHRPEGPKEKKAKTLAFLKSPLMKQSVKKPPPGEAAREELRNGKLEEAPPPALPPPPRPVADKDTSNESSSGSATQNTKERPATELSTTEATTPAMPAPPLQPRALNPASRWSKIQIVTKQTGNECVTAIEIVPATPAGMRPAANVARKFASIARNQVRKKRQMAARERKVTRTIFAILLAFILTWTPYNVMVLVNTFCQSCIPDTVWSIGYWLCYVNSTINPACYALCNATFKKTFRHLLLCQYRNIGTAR
Briefly: mAChR M4 cell-based functional assay (calcium mobilization, CHO-K1 hM4-Gqi5 cells). The settings on record: for Emax at 30 µM: CHO-K1, % ACh maximum at 30 μM; for EC50: positive allosteric modulator activity, increase in the EC20 acetylcholine response, CHO-K1 hM4-Gqi5 cells, read-out: Human M4 EC50. In short, it runs like this: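 Fluorescent calcium read-out (Fluo-4 AM, FDSS, 1 Hz) in hM4-Gqi5 CHO-K1 cells, 11-point 1:3 compound series. Agonism scored on compound addition, PAM activity as increase of the 144 s EC20 acetylcholine response, antagonism as decrease of the 230 s EC80 response; four-parameter logistic fits give EC50 and Emax.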
On the technique in general: Calcium flux is commonly read through the fluorescence of an indicator in the cells.

As to `Cc1cc(C(=O)NCc2ccncc2)cnc1N1CCc2ncc(-c3cnn(C)c3)cc2C1` [compound 176, 5-methyl-6-[3-(1-methylpyrazol-4-yl)-7,8-dihydro-5H-1,6-naphthyridin-6-yl]-N-(4-pyridylmethyl)pyridine-3-carboxamide], the EC50 (in general, the concentration giving half of the maximal effect) turned out to be 188 nM. Besides, the maximal response (Emax) (commonly the size of the effect at its maximum, as opposed to the concentration needed) at 30 µM (human M4) is 89%.

For `Cc1cnccc1CNC(=O)c1cnc(N2CCc3ncccc3C2)c(C)c1` [compound 130, 6-(7,8-dihydro-5H-1,6-naphthyridin-6-yl)-5-methyl-N-[(3-methyl-4-pyridyl)methyl]pyridine-3-carboxamide], the EC50 amounted to 507 nM. Further, the maximal effect (Emax) at 30 µM (human M4) is 82%.

On to `Cc1cc(C(=O)N2CC3(C2)CC(F)(F)C3)nnc1N1CCc2ncc(-n3cccn3)cc2C1` [Example 570, (6-(3-(1H-pyrazol-1-yl)-7,8-dihydro-1,6-naphthyridin-6(5H)-yl)-5-methylpyridazin-3-yl)(6,6-difluoro-2-azaspiro[3.3]heptan-2-yl)methanone], for which the concentration for a half-maximal effect (EC50) is 340 nM. In addition, the maximal effect (Emax) at 30 µM (human M4) came out at 84%.

With `Cc1cnccc1-c1cnc2c(c1)CN(c1nnc(C#N)c(C)c1C)CC2` [compound 77, 4,5-dimethyl-6-[3-(3-methyl-4-pyridyl)-7,8-dihydro-5H-1,6-naphthyridin-6-yl]pyridazine-3-carbonitrile], the EC50 was found to be 198 nM. Further, the Emax at 30 µM (human M4) is 89%.

Turning to `Cc1cnc2c(c1)CN(c1nnc(C#N)cc1C)CC2` [Example 305, 5-methyl-6-(3-methyl-7,8-dihydro-1,6-naphthyridin-6(5H)-yl)pyridazine-3-carbonitrile], the EC50 is 537 nM. The maximal effect (Emax) (CHO-K1) was 105%.

Turning to `[2H]C1([2H])Cc2ncc(-c3c(C)noc3C)cc2C([2H])([2H])N1c1nnc(C#N)cc1C` [Example 621, 6-(3-(3,5-dimethylisoxazol-4-yl)-7,8-dihydro-1,6-naphthyridin-6(5H)-yl-5,5,7,7-d4)-5-methylpyridazine-3-carbonitrile], the concentration for a half-maximal effect (EC50) worked out at 318 nM. For the same compound, under “human M4”, the Emax at 30 µM amounted to 85%.

For the compound `Cc1noc(C)c1-c1cnc2c(c1)CN(c1nnc(C#N)c(C)c1C)CC2` [Example 297, 6-(3-(3,5-dimethylisoxazol-4-yl)-7,8-dihydro-1,6-naphthyridin-6(5H)-yl)-4,5-dimethylpyridazine-3-carbonitrile], the EC50 came to 267 nM. Besides, the Emax at 30 µM (human M4) was determined as 83%.

For `Cc1cc(C#N)cnc1N1CCc2ncc(N3CCOC(C)(C)C3)cc2C1` [Example 370, 6-(3-(2,2-dimethylmorpholino)-7,8-dihydro-1,6-naphthyridin-6(5H)-yl)-5-methylnicotinonitrile], the EC50 was 81 nM. In addition, for the setting “human M4”, the maximal effect (Emax) at 30 µM worked out at 82%.

Turning to `Cc1cc(C#N)cnc1N1Cc2cc(N3CCOCC3)cnc2C(C)C1` (single isomer, unassigned) [Example 406, 5-methyl-6-(8-methyl-3-morpholino-7,8-dihydro-1,6-naphthyridin-6(5H)-yl)nicotinonitrile], the half-maximal effective concentration (EC50) stood at 326 nM. For the same compound, the maximum response (Emax) (% ACh maximum at 30 μM, human M4) was determined as 96%.

With `Cc1c(C#N)nnc(N2CCc3ncc(-c4cnc(Cl)c(F)c4)cc3C2)c1C` [compound 51, 6-[3-(6-chloro-5-fluoro-3-pyridyl)-7,8-dihydro-5H-1,6-naphthyridin-6-yl]-4,5-dimethyl-pyridazine-3-carbonitrile], the concentration giving a half-maximal response (EC50) was found to be 778 nM. Further, under “human M4”, the Emax at 30 µM was 61%.

On to `[2H]C1([2H])Cc2ncc(Nc3cc(C)ncc3F)cc2C([2H])([2H])N1c1nnc(C#N)c(C)c1C` [Example 600, 6-(3-((5-fluoro-2-methylpyridin-4-yl)amino)-7,8-dihydro-1,6-naphthyridin-6(5H)-yl-5,5,7,7-d4)-4,5-dimethylpyridazine-3-carbonitrile], for which the 50% effective concentration (EC50) turned out to be 26 nM. Further, for the setting “human M4”, the Emax at 30 µM stood at 92%.

In the case of `Cc1c(C(=O)NCc2ccncc2)nnc(N2CCc3ncc(Nc4ccccc4F)cc3C2)c1C` [compound 190, 6-[3-(2-fluoroanilino)-7,8-dihydro-5H-1,6-naphthyridin-6-yl]-4,5-dimethyl-N-(4-pyridylmethyl)pyridazine-3-carboxamide], the concentration giving a half-maximal response (EC50) was 136 nM. For the setting “human M4”, the Emax at 30 µM amounted to 105%.

Turning to `Cc1cc(C#N)cnc1N1CCc2ncc(Br)cc2C1` [Example 594, 6-(3-bromo-7,8-dihydro-1,6-naphthyridin-6(5H)-yl)-5-methylnicotinonitrile], the EC50 worked out at 132 nM. The maximal response (Emax) (CHO-K1) is 84%.

`Cc1cc(C(=O)NCc2cncs2)nnc1N1CCc2ncc(CC(F)(F)F)cc2C1` [Example 590, 5-methyl-N-(thiazol-5-ylmethyl)-6-(3-(2,2,2-trifluoroethyl)-7,8-dihydro-1,6-naphthyridin-6(5H)-yl)pyridazine-3-carboxamide]: the EC50 stood at 41 nM. Further, for the setting “human M4”, the Emax at 30 µM is 94%.

As for `Cc1c(C#N)nnc(N2CCc3ncc(Nc4ccccc4N(C)C)cc3C2)c1C` [compound 40, 6-[3-[2-(dimethylamino)anilino]-7,8-dihydro-5H-1,6-naphthyridin-6-yl]-4,5-dimethyl-pyridazine-3-carbonitrile], the EC50 was 910 nM. In addition, the Emax at 30 µM (human M4) turned out to be 51%.

`Cc1cc(C(=O)NC2CC3(COC3)C2)cnc1N1CCc2ncc(-c3cn(C)nc3C)cc2C1` [Example 475, 6-(3-(1,3-dimethyl-1H-pyrazol-4-yl)-7,8-dihydro-1,6-naphthyridin-6(5H)-yl)-5-methyl-N-(2-oxaspiro[3.3]heptan-6-yl)nicotinamide]: the half-maximal effective concentration (EC50) came out at 1740 nM. Also, the Emax at 30 µM (human M4) was 64%.

On to `Cc1cc(C(=O)N2CCCC2)nnc1N1CCc2ncc(N3CCO[C@H](C)C3)cc2C1` [Example 536, (R)-(5-methyl-6-(3-(2-methylmorpholino)-7,8-dihydro-1,6-naphthyridin-6(5H)-yl)pyridazin-3-yl)(pyrrolidin-1-yl)methanone], for which the EC50 was found to be 1150 nM. Moreover, the Emax at 30 µM (human M4) came out at 86%.

Take `Cc1cc(C#N)cnc1N1CCc2ncc(-c3ccc(F)nc3)cc2C1` [Example 319, 6-(3-(6-fluoropyridin-3-yl)-7,8-dihydro-1,6-naphthyridin-6(5H)-yl)-5-methylnicotinonitrile]: the 50% effective concentration (EC50) was 144 nM. Where the note is “human M4”, the Emax at 30 µM amounted to 76%.

Consider `Cc1cc(C#N)cnc1N1CCc2ncc(-c3cnn(C)c3)cc2C1` [compound 104, 5-methyl-6-[3-(1-methylpyrazol-4-yl)-7,8-dihydro-5H-1,6-naphthyridin-6-yl]pyridine-3-carbonitrile], for which the EC50 came to 216 nM. The maximal effect (Emax) at 30 µM (human M4) turned out to be 99%.

On to `Cc1nc(Cl)c(C)c(N2CCc3ncccc3C2)n1` [compound 83, 6-(6-chloro-2,5-dimethyl-pyrimidin-4-yl)-7,8-dihydro-5H-1,6-naphthyridine], for which the concentration giving a half-maximal response (EC50) turned out to be 1540 nM. In addition, the Emax (CHO-K1) amounted to 77%.

As for `Cc1cc(C#N)cnc1N1CCc2ncc(N3CCCn4nc(C(F)(F)F)cc43)cc2C1` [Example 412, 5-methyl-6-(3-(2-(trifluoromethyl)-6,7-dihydropyrazolo[1,5-a]pyrimidin-4(5H)-yl)-7,8-dihydro-1,6-naphthyridin-6(5H)-yl)nicotinonitrile], the EC50 stood at 306 nM. Besides, under “human M4”, the maximum response (Emax) at 30 µM came out at 62%.

With `Cc1cc(C#N)cnc1N1CCc2ncc(-c3cnn(C4CCCC4)c3)cc2C1` [compound 98, 6-[3-(1-cyclopentylpyrazol-4-yl)-7,8-dihydro-5H-1,6-naphthyridin-6-yl]-5-methyl-pyridine-3-carbonitrile], the concentration for a half-maximal effect (EC50) is 407 nM. In addition, the Emax at 30 µM (human M4) was determined as 79%.
